From patent US11690854B2, “Methods of treating heavy menstrual bleeding” (priority 2018, dated 2023)

Assays:
[1] = for Drugs with no observed clinically significant interactions with ELAGOLIX: co-administration with ELAGOLIX
Experimental: (§1) Drug interaction studies were performed with ELAGOLIX and other drugs that are likely to be co-administered and with drugs commonly used as probes for pharmacokinetic interactions.

[2] = Drug interaction studies: co-administered drug pharmacokinetics in the presence of elagolix; conditions: for Effect of co-administration of ELAGOLIX on concentration of concomitant drug (direction of the change in AUC): established drug interactions
Experimental: as §1

[3] = Ethinyl estradiol 35 mcg and triphasic norgestimate 0.18/0.215/0.25 mg once daily, elagolix 150 ms once daily, N 21

SMILES: CO[C@H]1/C=C/O[C@@]2(C)Oc3c(C)c(O)c4c(O)c(c(/C=N/N5CCN(C)CC5)c(O)c4c3C2=O)NC(=O)/C(C)=C\C=C\[C@H](C)[C@H](O)[C@@H](C)[C@@H](O)[C@@H](C)[C@H](OC(C)=O)[C@@H]1C [Rifampin]
- Effect of concomitant drug on elagolix (direction of the change in AUC) ([1]; established drug interactions): ↑ elagolix

SMILES: C#C[C@]1(O)CC[C@H]2[C@@H]3CCc4cc(O)ccc4[C@H]3CC[C@@]21C [Ethinyl Estradiol]
- Ratio of co-administered drug AUC, with elagolix vs medication alone [2, 3]: 1.30
- Ratio of co-administered drug Cmax, with elagolix vs medication alone [2, 3]: 1.15

SMILES: C#C[C@]1(O)CC[C@H]2[C@@H]3CCC4=CC(=NO)CC[C@@H]4[C@H]3CC[C@@]21CC (mixture of isomers) [Norelgestromin]
- Ratio of co-administered drug AUC, with elagolix vs medication alone [2, 3]: 0.85
- Ratio of co-administered drug Cmax, with elagolix vs medication alone [2, 3]: 0.87

SMILES: C[C@H]1O[C@@H](O[C@H]2[C@@H](O)C[C@H](O[C@H]3[C@@H](O)C[C@H](O[C@H]4CC[C@@]5(C)[C@H](CC[C@@H]6[C@@H]5C[C@@H](O)[C@]5(C)[C@@H](C7=CC(=O)OC7)CC[C@]65O)C4)O[C@@H]3C)O[C@@H]2C)C[C@H](O)[C@@H]1O [Digoxin]
- Ratio of co-administered drug AUC, with elagolix vs medication alone ([2]; Digoxin 0.5 mg single dose, elagolix 200 ms twice daily × 10 days, N 11, 90% CI 1.17-1.35): 1.26
- Ratio of co-administered drug Cmax, with elagolix vs medication alone ([2]; Digoxin 0.5 mg single dose, elagolix 200 ms twice daily × 10 days, N 11, 90% CI 1.53-1.91): 1.71
- Effect of co-administration of ELAGOLIX on concentration of concomitant drug (direction of the change in AUC) [2]: ↑ digoxin

SMILES: CN[C@H]1CC[C@@H](c2ccc(Cl)c(Cl)c2)c2ccccc21 [sertraline]
- Drugs with no observed clinically significant interactions with ELAGOLIX [1]: No dose adjustment is required

SMILES: Cc1ncc2n1-c1ccc(Cl)cc1C(c1ccccc1F)=NC2 [Midazolam]
- Ratio of co-administered drug AUC, with elagolix vs medication alone ([2]; Midazolam 2 mg single dose, elagolix 300 mg twice daily × 11 days, N 20, 90% CI 0.41-0.50): 0.46
- Ratio of co-administered drug Cmax, with elagolix vs medication alone ([2]; Midazolam 2 mg single dose, elagolix 300 mg twice daily × 11 days, N 20, 90% CI 0.51-0 62): 0.56
- Ratio of co-administered drug AUC, with elagolix vs medication alone ([2]; Midazolam 2 mg single dose, elagolix 150 ms once daily × 13 days, N 11, 90% CI 0.58-0.72): 0.65
- Ratio of co-administered drug Cmax, with elagolix vs medication alone ([2]; Midazolam 2 mg single dose, elagolix 150 ms once daily × 13 days, N 11, 90% CI 0.74-0.89): 0.81
- Effect of co-administration of ELAGOLIX on concentration of concomitant drug (direction of the change in AUC) [2]: ↓ midazolam

SMILES: CC(=O)N1CCN(c2ccc(OCC3COC(Cn4ccnc4)(c4ccc(Cl)cc4Cl)O3)cc2)CC1 (centres unmarked) [Ketoconazole]
- Drugs with no observed clinically significant interactions with ELAGOLIX [1]: No dose adjustment is required

SMILES: C#CC1(O)CC[C@H]2[C@@H]3CCC4=CC(=O)CC[C@@H]4[C@H]3CC[C@@]21CC (mixture of isomers) [Norgestrel]
- Ratio of co-administered drug AUC, with elagolix vs medication alone [2, 3]: 0.92
- Ratio of co-administered drug Cmax, with elagolix vs medication alone [2, 3]: 0.89

SMILES: CC(C)c1nc(N(C)S(C)(=O)=O)nc(-c2ccc(F)cc2)c1/C=C/[C@@H](O)C[C@@H](O)CC(=O)O [Rosuvastatin]
- Ratio of co-administered drug AUC, with elagolix vs medication alone ([2]; Rosuvastatin 20 mg once daily, elagolix 300 mg twice daily × 7 days, N 10, 90% CI 0.50-0.71): 0.60
- Ratio of co-administered drug Cmax, with elagolix vs medication alone ([2]; Rosuvastatin 20 mg once daily, elagolix 300 mg twice daily × 7 days, N 10, 90% CI 0.73-1.35): 0.99
- Effect of co-administration of ELAGOLIX on concentration of concomitant drug (direction of the change in AUC) [2]: ↓ rosuvastatin
